# Columns and labels:
# DKK1 = DKK1 gene expression (real-time qPCR) in dermal fibroblasts; format: cell-based, human; settings: 10 and 25 μM apigenin, 24 hours
# Description: (§1) To assess the levels of key pigmentation regulatory markers in fibroblasts, dermal fibroblasts (Promocell, #C-12302) were cultured for 24 hours with the active ingredient apigenin. After the treatment, the RNA was extracted (Norgen, #17200) and real-time qPCR was performed (Takara, #R[…]) on the DKK1 and VEGF genes.
# VEGF = VEGF gene expression (real-time qPCR) in dermal fibroblasts; format: cell-based, human; settings: 10 and 25 μM apigenin, 24 hours
# Description: as §1
# Wnt pathway = Wnt pathway in melanocytes: melanogenesis-regulating gene expression after BIO stimulation (qPCR); format: cell-based, human; settings: 0.1 μM BIO; 0.5 and 5 μM apigenin or 10 and 25 μM phloretin; 24 hours; genes TYRP1, DCT, PAX3, PMEL17
# Description: After the treatment, the RNA was extracted (Norgen, #17200) and a real-time qPCR was performed (Takara, #R[…]) on the TYRP1, DCT, PAX3 and PMEL17 genes.
# SCF pathway = SCF pathway in melanocytes: melanogenesis-regulating gene expression after CBD stimulation (qPCR); format: cell-based, human; settings: 2.5 μM cannabidiol; 0.5 and 5 μM apigenin or 10 and 25 μM phloretin; 24 hours; genes DCT, PAX3
# Description: In order to assess the inhibition of the SCF pathway in melanocytes, human epidermal melanocytes were cultured with 2.5 μM cannabidiol (CBD)+0.5 and 5 μM apigenin or 10 and 25 μM phloretin for 24 hours. After the treatment, the RNA was extracted (Norgen, #17200) and a real-time qPCR was performed (Takara, #R[…]) on the DCT and PAX3 genes.
# miR-675 = miR-675 levels in melanocytes (real-time qPCR); format: cell-based; settings: human epidermal melanocytes, 0.5 μM apigenin, 24 hours
# Description: In order to assess the effect of miRNA levels in melanocytes, human epidermal melanocytes were cultured with 0.5 μM apigenin or 10 μM phloretin for 24 hours. After the treatment, the RNA was extracted (Norgen, #17200) and a real-time qPCR was performed (Takara, #638313) on miR-675.
# skin hyperpigmentation = settings: mice treated with UVB; cited from earlier work
# tyrosinase = settings: spectroscopy and chromatography; cited from earlier work
SMILES,DKK1 expression (DKK1),VEGF expression (VEGF),expression of melanogenesis-regulating genes after stimulation with BIO (Wnt pathway),expression of the melanogenesis-regulating genes after stimulation with CBD (SCF pathway),miR-675 levels (miR-675),skin hyperpigmentation (skin hyperpigmentation),action on tyrosinase (tyrosinase)
"O=c1cc(-c2ccc(O)cc2)oc2cc(O)cc(O)c12 [apigenin, 5,7-dihydroxy-2-(4-hydroxyphenyl)-4H-1-benzopyran-4-one]",significantly induces,reduces,significantly reduce,significantly reduce,significantly increasing,inhibits,–
"O=C(CCc1ccc(O)cc1)c1c(O)cc(O)cc1O [phloretin, 3-(4-hydroxyphenyl)-1-(2,4,6-trihydroxyphenyl)propane-1-one]",–,–,significantly reduce,significantly reduce,–,–,a tyrosinase substrate but also an inhibitor
